One experiment has as its system PxHK mRNA in the midgut. Description: Ex vivo midgut incubation with sNPF and signalling inhibitors, PxHK mRNA. The conditions noted are these: midgut ex vivo, 20 µM sNPF + 10 µM U73122 (PLCβ inhibitor), 25 °C, 1 h; n = 5; words. The format is cell-based, Plutella xylostella. Here is the method:
(§1) The in vitro incubations of fat body or midgut were performed as previously described with minor modifications (Cheng et al, [2022]). The fat bodies and midguts from non-parasitised middle 4th instar P. xylostella larvae were collected in 0.5 mL of PBS. The collected tissues were then preincubated in culture dishes containing TNM-FH medium (HyClone) for 30 min. sNPF peptides or inhibitors were administered to isolated fat body and midgut in vitro using a modified method from a previous study (Oh et al, [2019]). 1 mM stock solution of pertussis toxin (PTX, Tocris Bioscience) or U73122 (MedChemExpress) was dissolved in DMSO (Sigma-Aldrich) and kept at −80 °C. 0.1 ng/µl PTX or 10 µM U73122 were then mixed with 20 µM sNPF-contained TNM-FH medium. Preincubated tissues were incubated in these mixtures at 25 °C for 1 h, followed by total RNA isolation and qPCR.

Experiment [1] has as its system P. xylostella larvae. Nature of the experiment: Circulating haemolymph trehalose after injection of synthetic sNPF peptides, venom, CvBV or teratocyte content. The conditions noted are these: for effect on haemolymph trehalose level: synthetic PxsNPFs, injected into 3M larvae, measured at 4M, high dosage 0.5 ng per larva, n = 4-6, words. The format is in vivo, Plutella xylostella. Here is the method:
(§2) Microinjections were performed under a Stemi 2000C microscope (Zeiss) using glass capillary injection needles and an Eppendorf Femtojet (Eppendorf) with a microcontroller (Narishige). To confirm the function of bovine insulin on hosts, 1 μg bovine insulin (Sigma-Aldrich, I0305000) was injected into the middle 3rd instar P. xylostella larvae. To identify the effect of each parasitic factor on hosts, 0.05 FE CvBV or 0.05 VRE venom was injected into the abdomen of the middle 3rd instar P. xylostella larva (Wang et al, [2018]; Yu et al, [2007]). 1 TE teratocytes’ content was microinjected into the early 4th instar P. xylostella larvae. To confirm the function of each synthetic sNPF peptide, 0.005 ng, 0.05 ng, or 0.5 ng of each peptide was injected into the middle 3rd instar P. xylostella larvae in a volume of 0.1 μl/per larva once per day for 3 consecutive days.
For P. xylostella larvae, 1 μl of haemolymph from the moth was diluted 60-fold in cold PBS and subjected to trehalose determination. The fat body of P. xylostella larvae was homogenised in 200 μl of cold PBS. Half of the homogenate was centrifuged at 13,000 rpm for 15 min, and the supernatant was used for protein content determination by Bradford Reagent (Invitrogen). The rest was heated at 70 °C for 5 min followed by centrifuging at 13,000 rpm for 15 min, and the supernatant was used for glycogen determination.
Trehalose content determination was performed by the anthrone sulfate method. 15 μL of the sample was incubated with 15 μL of 1% H2SO4 at 90 °C for 10 min, then 15 μL of 30% KOH was added and incubated at 90 °C for 10 min. Finally, 300 μl of 0.2% anthrone (Sigma-Aldrich) solution in 96% H2SO4 was added and incubated at 90 °C for 10 min. All reactions were stopped by immersion in ice. To create a trehalose standard curve, 15 μl of trehalose standards (Sigma-Aldrich) were treated similarly as a sample. Finally, 100 μl of each sample was added to a 96-well plate. The absorbance of samples was then measured at 630 nm on a SpectraMax® iD5 Multi-Mode Microplate Reader (Molecular Devices), and the trehalose levels were calculated based on the standard curve and normalised by protein content or sample volume.

In experiment [2] the test system is PxGP, PxHK and PxTPS mRNA. Nature of the experiment: qPCR of PxGP, PxHK, PxTPS in larvae injected with synthetic sNPF, venom, CvBV or teratocytes. The class given is in vivo, Plutella xylostella.
Text: (§3) To analyse gene expression in different tissues, P. xylostella larvae were dissected under the microscope, followed by the collection of the silk gland, fat body, midgut, haemocytes and central nervous system (CNS, brain and ventral nerve cord). Haemocytes were collected on clean Parafilm membranes with capillaries by bleeding the larvae from a cut proleg. To explore gene expression at different instars of parasitised or non-parasitised larvae, non-parasitised larva was isolated individually using RNA-easy Isolation Reagent (Vazyme). Parasitoid larvae were removed before parasitised hosts were isolated. As for the measurement of other experiments, per larva with different treatments was isolated individually using RNA-easy Isolation Reagent according to the manufacturer’s instructions.
(§4) The quality and concentrations of total RNAs were estimated by electrophoresis and NanoDrop 2000 spectrophotometer (Thermo Fisher Scientific). First-strand cDNAs were synthesised using the ReverTra Ace qPCR RT kit (Toyobo) according to the manufacturer’s instructions. Both β-actin (GenBank Acc. No.: AB282645) and β-tubulin (GenBank Acc. No.: EU127912) of P. xylostella were used as internal controls. Primer sequences used for qPCR analysis are shown in Appendix Table S4. qPCR was performed by using THUNDERBIRD® SYBR qPCR Mix (Toyobo) on the CFX Connect real-time system (Bio-Rad). All qPCR assays were performed using four internal replicates and at least three biological replicates under the following conditions: 95 °C for 60 s and 40 cycles of 95 °C for 15 s and 60 °C for 30 s. Relative gene expression levels were calculated using the 2^−ΔΔCt method.
as §2

Another experiment has as its system PxsNPF mRNA. Nature of the experiment: PxsNPF mRNA after injection of venom, CvBV or teratocytes. The format is in vivo, Plutella xylostella.
Text: as §3
The quality and concentrations of total RNAs were estimated by electrophoresis and NanoDrop 2000 spectrophotometer (Thermo Fisher Scientific). First-strand cDNAs were synthesised using the ReverTra Ace qPCR RT kit (Toyobo) according to the manufacturer’s instructions. Both β-actin (GenBank Acc. No.: AB282645) and β-tubulin (GenBank Acc. No.: EU127912) of P. xylostella were used as internal controls. […] Relative gene expression levels were calculated using the 2^−ΔΔCt method. […]

Experiment [3] concerns PxInR, PxGP, PxHK and PxTPS mRNA. Description: qPCR of PxInR, PxGP, PxHK, PxTPS after bovine insulin. As to conditions: for PxInR relative expression, average: Figure 3D; for PxInR relative expression, average / PxGP relative expression, average: normalised to Pxβ-actin and Pxβ-tubulin; for PxGP relative expression, average / PxGP relative expression: Figure 3E. The class given is in vivo, Plutella xylostella.
Text: as §3, §4, §2
On the technique in general: Quantitative PCR measures a nucleic acid by following its amplification.

For experiment [4], the system named is Spodoptera exigua and Antheraea pernyi. The conditions noted are these: bovine insulin injection, words, ref PMID: 25703302, 34564224; cited from earlier work. From the text:
page 9: short summary of the existing data, including for instance, which species this experiment has been conducted in and the data linking bovine insulin to activation of insect insulin-like pathways. […] Response: Thank you for pointing out the need to better justify the use of bovine insulin in our experimental design.

Experiment [5] has as its system P. xylostella larvae. Nature of the experiment: Haemolymph trehalose after bovine insulin. The class given is in vivo, Plutella xylostella. As to conditions: 1 μg bovine insulin, words. How it is done:
as §2
For P. xylostella larvae, 1 μl of haemolymph from the moth was diluted 60-fold in cold PBS and subjected to trehalose determination. The fat body of P. xylostella larvae was homogenised in 200 μl of cold PBS. […]
Trehalose content determination was performed by the anthrone sulfate method. […] The absorbance of samples was then measured at 630 nm on a SpectraMax® iD5 Multi-Mode Microplate Reader (Molecular Devices), and the trehalose levels were calculated based on the standard curve and normalised by protein content or sample volume.

Experiment [6] concerns PxGP mRNA in the fat body. Description: Ex vivo fat body incubation with sNPF and signalling inhibitors, PxGP mRNA. The class given is cell-based, Plutella xylostella. The conditions noted are these: 20 µM sNPF + PTX (0.4 µM in legend, 0.1 ng/µl in method), 25 °C, 1 h, n = 6, words. How it is done:
as §1

Experiment [7] has as its target Plutella xylostella sNPF receptor (PxsNPFR) (Plutella xylostella).

No end group written: not given here.

`COc1ccc2c(c1)CC[C@@H]1[C@@H]2CC[C@]2(C)[C@@H](NCCCCCCN3C(=O)C=CC3=O)CC[C@@H]12` [U73122, reference compound]: the “effect on sPxsNPF-1-stimulated PxHK mRNA” value in the experiment on PxHK mRNA in the midgut is “abolished the facilitatory effect of sPxsNPF-1 on PxHK”.

With Cotesia vestalis bracovirus [CvBV], in the experiment with P. xylostella larvae [1] (0.05 FE CvBV injected into 3M larvae, at 3L, n = 3-4), the “increase of circulating trehalose” value is on record as 40%. Moreover, the “PxGP relative expression, average” value was found to be 0.87 in experiment [2] (Figure 4B, CvBV injection, qPCR, Pxβ-actin and Pxβ-tubulin reference, relative to PBS (normalizer 6.00), mean of 5 replicates, SD 0.29); 1.73 in experiment [2] (Figure 4B, PxGP vs PBS, Pxβ-actin/Pxβ-tubulin reference, mean of 5 replicates). Also, the “PxHK relative expression, Average” value in experiment [2] (Figure 4B, PxHK vs PBS, Pxβ-actin/Pxβ-tubulin reference, mean of 5 replicates) is 2.64. In addition, the PxHK relative expression in experiment [2] (Figure 4B, PxHK vs PBS, Pxβ-actin/Pxβ-tubulin reference, replicate 1) worked out at 2.97; in [2] (Figure 4B, PxHK vs PBS, Pxβ-actin/Pxβ-tubulin reference, replicate 2), 2.49; in experiment [2] (Figure 4B, PxHK vs PBS, Pxβ-actin/Pxβ-tubulin reference, replicate 3), 2.41; in [2] (Figure 4B, PxHK vs PBS, Pxβ-actin/Pxβ-tubulin reference, replicate 4), 2.30; in [2] (Figure 4B, PxHK vs PBS, Pxβ-actin/Pxβ-tubulin reference, replicate 5), 3.01. The “transcript level of PxHK” value in experiment [2] (non-parasitised larvae (whole body), CvBV, 3L, n = 5, words) was “increases the transcript level of PxHK”. For the same molecule, the PxsNPF expression result in the experiment with PxsNPF mRNA (24 h after injection, n = 3-6, words) is “an increase in PxsNPF expression 24 h after CvBV injection”. Further, the “PxsNPF relative expression, Average” value in the experiment with PxsNPF mRNA (Figure 5K, 3M, average of replicates, vs PBS) was 1.99.

Regarding “DTRQPVRLRF-NH2 [sPxsNPF-2, synthetic short neuropeptide F-2 of Plutella xylostella]”, the “effect on haemolymph trehalose level” value in the experiment on P. xylostella larvae [1] is “did not have this effect”.

As for “SVRAPSMRLRF-NH2 [sPxsNPF-3, synthetic short neuropeptide F-3 of Plutella xylostella]”, the “effect on haemolymph trehalose level” value in the experiment on P. xylostella larvae [1] is recorded as “did not have this effect”.

bovine insulin: the PxGP expression result in experiment [3] (1 μg bovine insulin, parasitised host, 4M, n = 4-5, words) was “not reduced by bovine insulin in the parasitised host as in the non-parasitised group”. Moreover, the PxInR expression result in experiment [3] (1 μg bovine insulin, whole body, 4M, n = 4-5, non-parasitised and parasitised, words) was “upregulated in both non-parasitised and parasitised hosts”. Also, the “PxInR relative expression, average” value came to 3.425 in experiment [3] (NP, mean of 5 replicates) and 7.591 in experiment [3] (P, mean of 4 replicates). Moreover, the “PxGP relative expression, average” value in experiment [3] (NP, mean of 5 replicates) amounted to 0.3318; in experiment [3] (P, mean of 4 replicates), 3.4733. In addition, the PxGP relative expression in experiment [3] (NP, replicate 1) was determined as 0.3933; in [3] (NP, replicate 2), 0.2777; in experiment [3] (NP, replicate 3), 0.2734; in [3] (NP, replicate 4), 0.4168; in experiment [3] (NP, replicate 5), 0.298; in [3] (P, replicate 1), 3.51. Further, the PxGP relative expression stood at 4.4126 in [3] (P, replicate 2); 3.361 in experiment [3] (P, replicate 3); 2.609 in [3] (P, replicate 4). In experiment [4], the hemolymph trehalose levels entry was “significant reduction in hemolymph trehalose levels”. In addition, the blood trehalose level result in the experiment with P. xylostella larvae [5] (normal (non-parasitised) larvae) was “reduces the blood trehalose level”. The haemolymph trehalose level result in the experiment on P. xylostella larvae [5] (parasitised host, 4M, n = 4-5) is “not reduced by bovine insulin in the parasitised host as in the non-parasitised group”.

For the molecule pertussis toxin [PTX], in [6], the “effect on sCvsNPF-stimulated PxGP mRNA” value is “decreased the sCvsNPF activation of PxGP”.

B1: synthetic CvsNPF (Cotesia vestalis short neuropeptide F) (peptide)
peptide: SQRSPSLRLRF-NH2
For B1, the inhibition of forskolin-stimulated cAMP accumulation in PxsNPFR-expressing HEK293 cells (10 μM forskolin, various peptide concentrations, 15 min; cAMP-Glo), EC50 in [7] is 402 nM.

The record behind these values is publication PMC12992715, “Dual interference with host neuropeptide signaling allows parasitoid wasp to hijack host sugar metabolism” (The EMBO Journal, 2025).
